Measured values reported in patent US20190315806A1, “POLYMYXIN DERIVATIVE, PREPARATION METHOD AND APPLICATION THEREOF” (priority 2016, published 2019).
Converted amounts (≈) assume the structure as drawn. Where a SMILES comes first, the peptide text is derived from it. Bridges are numbered along the chain shown (N, C = ends). [ ]: non-standard residue; d: D form. The star is where a group is joined. Heptanoyl(6-Me) = CC(C)CCCCC(=O)*; Nonanoyl = CCCCCCCCC(=O)*; X2 = CC[C@H](C)CCCCC(=O)*; Heptanoyl = CCCCCCC(=O)*; Dab = NCC[C@H](N)C(=O)O; Nva = CCC[C@H](N)C(=O)O

Key:
Format in all cases: cell-based
[1] = system: Klebsiella pneumoniae ATCC BAA-2146 (NDM-1); experiment: Antibacterial activity, MIC by dish double dilution method; conditions: ATCC BAA-2146
Method in brief: (§1)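 Agar dilution per CLSI; drug mixed into molten agar at twofold steps from 0.03 to 128 μg/mL (final). Inoculum 10^4 CFU/dot, multipoint. Incubation 35° C., 18–24 h; MIC = lowest concentration with no colonies.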

[2] = Nephrotoxicity test, renal cytotoxicity by MTT method; conditions: African green monkey
Experimental: African green monkey kidney cells (Vero cells) were cultured in MEM medium (Hyclone), 10% fetal calf serum (Invitrogen) was added before use, cultured at 37° C. under 5% CO2.
Experiment was carried out using MTT method. After digestion, cells in logarithmic growth phase were counted, then the cells were inoculated in a 96-well culture plate. After incubation for 24 h to be adherent, cells were treated with a concentration gradient of a compound of the invention (e.g., a compound prepared in the Embodiments) and the controls. After 72 h, the culture solution was removed, 100 uL of MTT reagent at a concentration of 0.5 mg/ml was added, the medium was removed after incubating for 3 hours in a 37° C. incubator. Add 150 μL DMSO solvent to each well, mix for 3 min, after which the absorbance at 570 nm (A) was measured with a microplate reader.
Cell viability %=(Adosed cell−Abackground)/(Acontrol cell−Abackground)×100%. The average value of 3 parallel wells was taken for each detection point, and the inhibition curve was drawn to calculate the IC50 value.
The African green monkey kidney cells (Vero cells) used in the experiment were from the Cell Resource Center of the Institute of Basic Medicine, Chinese Academy of Medical Sciences.

[3] = system: Staphylococcus epidermidis ATCC 12228; conditions: ATCC 12228
Method in brief: as §1

[4] = system: Acinetobacter baumannii ATCC 19606; conditions: ATCC 19606
Method in brief: as §1

[5] = system: Escherichia coli ATCC 25922; conditions: ATCC 25922
Method in brief: as §1

[6] = system: Pseudomonas aeruginosa ATCC 27853; conditions: ATCC 27853
Method in brief: as §1

| SMILES | MIC K. pneumoniae ATCC BAA-2146 (NDM-1) [1] | MIC S. epidermidis ATCC 12228 [3] | MIC A. baumannii ATCC 19606 [4] | MIC E. coli ATCC 25922 [5] | MIC P. aeruginosa ATCC 27853 [6] | IC50 at 72 h [2] |
| --- | --- | --- | --- | --- | --- | --- |
| CCCCCCC(=O)N[C@@H](CCN)C(=O)N[C@H](C(=O)N[C@@H](CCN)C(=O)N[C@H]1CCNC(=O)[C@H]([C@@H](C)O)NC(=O)[C@H](CCN)NC(=O)[C@H](CCN)NC(=O)[C@H](CC(C)C)NC(=O)[C@@H](Cc2ccccc2)NC(=O)[C@H](CCN)NC1=O)[C@@H](C)O [Compound 45, heptanoyl-Dab-Thr-Dab-ring(4-10)[Dab-Dab-D-Phe-Leu-Dab-Dab-Thr]] (Heptanoyl-[Dab]T[Dab][Dab][Dab][dF]L[Dab][Dab]T; lactam 4-C) | 0.5 µg/mL (≈ 0.425 µM) | 128 µg/mL (≈ 109 µM) | 0.5 µg/mL (≈ 0.425 µM) | 0.5 µg/mL (≈ 0.425 µM) | 1 µg/mL (≈ 0.851 µM) | 160 ± 13.6 µg/mL (≈ 136 µM) |
| CCCCCCCCC(=O)N[C@@H](CCN)C(=O)N[C@H](C(=O)N[C@@H](CCN)C(=O)N[C@H]1CCNC(=O)[C@H]([C@@H](C)O)NC(=O)[C@H](CCN)NC(=O)[C@H](CCN)NC(=O)[C@H](CC(C)C)NC(=O)[C@@H](Cc2ccccc2)NC(=O)[C@H](CCN)NC1=O)[C@@H](C)O [Compound 46, nonanoyl-Dab-Thr-Dab-ring(4-10)[Dab-Dab-D-Phe-Leu-Dab-Dab-Thr]] (Nonanoyl-[Dab]T[Dab][Dab][Dab][dF]L[Dab][Dab]T; lactam 4-C) | 2 µg/mL (≈ 1.66 µM) | 32 µg/mL (≈ 26.6 µM) | 1 µg/mL (≈ 0.831 µM) | 1 µg/mL (≈ 0.831 µM) | 2 µg/mL (≈ 1.66 µM) | 33.1 ± 2.64 µg/mL (≈ 27.5 µM) |
| CC[C@H](C)CCCCC(=O)N[C@@H](CCN)C(=O)N[C@H](C(=O)N[C@@H](CCN)C(=O)N[C@H]1CCNC(=O)[C@H]([C@@H](C)O)NC(=O)[C@H](CCN)NC(=O)[C@H](CCN)NC(=O)[C@H]([C@@H](C)CC)NC(=O)[C@@H](Cc2ccccc2)NC(=O)[C@H](CCN)NC1=O)[C@@H](C)O [Compound 47, (S)-6-methyloctanoyl-Dab-Thr-Dab-ring(4-10)[Dab-Dab-D-Phe-Ile-Dab-Dab-Thr]] (X2-[Dab]T[Dab][Dab][Dab][dF]I[Dab][Dab]T; lactam 4-C) | 1 µg/mL (≈ 0.831 µM) | 128 µg/mL (≈ 106 µM) | 1 µg/mL (≈ 0.831 µM) | 1 µg/mL (≈ 0.831 µM) | 2 µg/mL (≈ 1.66 µM) | 74.7 ± 6.13 µg/mL (≈ 62.1 µM) |
| CC[C@H](C)CCCCC(=O)N[C@@H](CCN)C(=O)N[C@H](C(=O)N[C@H](CO)C(=O)N[C@H]1CCNC(=O)[C@H]([C@@H](C)O)NC(=O)[C@H](CCN)NC(=O)[C@H](CCN)NC(=O)[C@H]([C@@H](C)O)NC(=O)[C@@H](CC(C)C)NC(=O)[C@H](CCN)NC1=O)[C@@H](C)O [Compound 58, (S)-6-methyloctanoyl-Dab-Thr-D-Ser-ring(4-10)[Dab-Dab-D-Leu-Thr-Dab-Dab-Thr]] (X2-[Dab]T[dS][Dab][Dab][dL]T[Dab][Dab]T; lactam 4-C) | 0.5 µg/mL (≈ 0.437 µM) | >128 µg/mL | 0.06 µg/mL (≈ 0.0524 µM) | 0.12 µg/mL (≈ 0.105 µM) | 2 µg/mL (≈ 1.75 µM) | 189 ± 11.3 µg/mL (≈ 165 µM) |
| CC(C)CCCCC(=O)N[C@@H](CCN)C(=O)N[C@H](C(=O)N[C@H](CO)C(=O)N[C@H]1CCNC(=O)[C@H]([C@@H](C)O)NC(=O)[C@H](CCN)NC(=O)[C@H](CCN)NC(=O)[C@H]([C@@H](C)O)NC(=O)[C@@H](CC(C)C)NC(=O)[C@H](CCN)NC1=O)[C@@H](C)O [Compound 59, 6-methylheptanoyl-Dab-Thr-D-Ser-ring(4-10)[Dab-Dab-D-Leu-Thr-Dab-Dab-Thr]] ({Heptanoyl(6-Me)}-[Dab]T[dS][Dab][Dab][dL]T[Dab][Dab]T; lactam 4-C) | 0.5 µg/mL (≈ 0.442 µM) | >128 µg/mL | 0.12 µg/mL (≈ 0.106 µM) | 0.25 µg/mL (≈ 0.221 µM) | 2 µg/mL (≈ 1.77 µM) | 318 ± 25.6 µg/mL (≈ 281 µM) |
| CC[C@H](C)CCCCC(=O)N[C@@H](CCN)C(=O)N[C@H](C(=O)N[C@@H](CCN)C(=O)N[C@H]1CCNC(=O)[C@H]([C@@H](C)O)NC(=O)[C@H](CCN)NC(=O)[C@H](CCN)NC(=O)[C@H]([C@@H](C)CC)NC(=O)[C@@H](CC(C)C)NC(=O)[C@H](CCN)NC1=O)[C@@H](C)O [Compound 71, (S)-6-methyloctanoyl-Dab-Thr-Dab-ring(4-10)[Dab-Dab-D-Leu-Ile-Dab-Dab-Thr]] (X2-[Dab]T[Dab][Dab][Dab][dL]I[Dab][Dab]T; lactam 4-C) | 1 µg/mL (≈ 0.855 µM) | 128 µg/mL (≈ 109 µM) | 1 µg/mL (≈ 0.855 µM) | 1 µg/mL (≈ 0.855 µM) | 2 µg/mL (≈ 1.71 µM) | 176 ± 14.7 µg/mL (≈ 151 µM) |
| CC[C@H](C)CCCCC(=O)N[C@@H](CCN)C(=O)N[C@H](C(=O)N[C@@H](CCN)C(=O)N[C@H]1CCNC(=O)[C@H]([C@@H](C)O)NC(=O)[C@H](CCN)NC(=O)[C@H](CCN)NC(=O)[C@H](C(C)C)NC(=O)[C@@H](CC(C)C)NC(=O)[C@H](CCN)NC1=O)[C@@H](C)O [Compound 72, (S)-6-methyloctanoyl-Dab-Thr-Dab-ring(4-10)[Dab-Dab-D-Leu-Val-Dab-Dab-Thr]] (X2-[Dab]T[Dab][Dab][Dab][dL]V[Dab][Dab]T; lactam 4-C) | 0.5 µg/mL (≈ 0.433 µM) | 128 µg/mL (≈ 111 µM) | 0.5 µg/mL (≈ 0.433 µM) | 0.5 µg/mL (≈ 0.433 µM) | 2 µg/mL (≈ 1.73 µM) | 131 ± 8.69 µg/mL (≈ 113 µM) |

Continued, in another order:

| MIC K. pneumoniae ATCC BAA-2146 (NDM-1) [1] | MIC S. epidermidis ATCC 12228 [3] | MIC A. baumannii ATCC 19606 [4] | MIC E. coli ATCC 25922 [5] | MIC P. aeruginosa ATCC 27853 [6] | SMILES | IC50 at 72 h [2] |
| --- | --- | --- | --- | --- | --- | --- |
| 1 µg/mL (≈ 0.865 µM) | 128 µg/mL (≈ 111 µM) | 1 µg/mL (≈ 0.865 µM) | 1 µg/mL (≈ 0.865 µM) | 1 µg/mL (≈ 0.865 µM) | CCC[C@@H]1NC(=O)[C@@H](CC(C)C)NC(=O)[C@H](CCN)NC(=O)[C@@H](NC(=O)[C@H](CCN)NC(=O)[C@@H](NC(=O)[C@H](CCN)NC(=O)CCCC[C@@H](C)CC)[C@@H](C)O)CCNC(=O)[C@H]([C@@H](C)O)NC(=O)[C@H](CCN)NC(=O)[C@H](CCN)NC1=O [Compound 73, (S)-6-methyloctanoyl-Dab-Thr-Dab-ring(4-10)[Dab-Dab-D-Leu-Nva-Dab-Dab-Thr]] (X2-[Dab]T[Dab][Dab][Dab][dL][Nva][Dab][Dab]T; lactam 4-C) | 108 ± 9.16 µg/mL (≈ 93.9 µM) |
| 1 µg/mL (≈ 0.865 µM) | 128 µg/mL (≈ 111 µM) | 1 µg/mL (≈ 0.865 µM) | 1 µg/mL (≈ 0.865 µM) | 2 µg/mL (≈ 1.73 µM) | CC[C@H](C)[C@@H]1NC(=O)[C@@H](CC(C)C)NC(=O)[C@H](CCN)NC(=O)[C@@H](NC(=O)[C@H](CCN)NC(=O)[C@@H](NC(=O)[C@H](CCN)NC(=O)CCCCC(C)C)[C@@H](C)O)CCNC(=O)[C@H]([C@@H](C)O)NC(=O)[C@H](CCN)NC(=O)[C@H](CCN)NC1=O [Compound 75, 6-methylheptanoyl-Dab-Thr-Dab-ring(4-10)[Dab-Dab-D-Leu-Ile-Dab-Dab-Thr]] ({Heptanoyl(6-Me)}-[Dab]T[Dab][Dab][Dab][dL]I[Dab][Dab]T; lactam 4-C) | 199 ± 13.1 µg/mL (≈ 172 µM) |
| 0.5 µg/mL (≈ 0.438 µM) | >128 µg/mL | 1 µg/mL (≈ 0.876 µM) | 0.5 µg/mL (≈ 0.438 µM) | 2 µg/mL (≈ 1.75 µM) | CC(C)CCCCC(=O)N[C@@H](CCN)C(=O)N[C@H](C(=O)N[C@@H](CCN)C(=O)N[C@H]1CCNC(=O)[C@H]([C@@H](C)O)NC(=O)[C@H](CCN)NC(=O)[C@H](CCN)NC(=O)[C@H](C(C)C)NC(=O)[C@@H](CC(C)C)NC(=O)[C@H](CCN)NC1=O)[C@@H](C)O [Compound 76, 6-methylheptanoyl-Dab-Thr-Dab-ring(4-10)[Dab-Dab-D-Leu-Val-Dab-Dab-Thr]] ({Heptanoyl(6-Me)}-[Dab]T[Dab][Dab][Dab][dL]V[Dab][Dab]T; lactam 4-C) | 225 ± 17 µg/mL (≈ 197 µM) |
| 0.5 µg/mL (≈ 0.438 µM) | >128 µg/mL | 0.5 µg/mL (≈ 0.438 µM) | 0.5 µg/mL (≈ 0.438 µM) | 1 µg/mL (≈ 0.876 µM) | CCC[C@@H]1NC(=O)[C@@H](CC(C)C)NC(=O)[C@H](CCN)NC(=O)[C@@H](NC(=O)[C@H](CCN)NC(=O)[C@@H](NC(=O)[C@H](CCN)NC(=O)CCCCC(C)C)[C@@H](C)O)CCNC(=O)[C@H]([C@@H](C)O)NC(=O)[C@H](CCN)NC(=O)[C@H](CCN)NC1=O [Compound 77, 6-methylheptanoyl-Dab-Thr-Dab-ring(4-10)[Dab-Dab-D-Leu-Nva-Dab-Dab-Thr]] ({Heptanoyl(6-Me)}-[Dab]T[Dab][Dab][Dab][dL][Nva][Dab][Dab]T; lactam 4-C) | 168 ± 12.5 µg/mL (≈ 148 µM) |
